Consider four compounds from paper PMC7026418, “The kinase polypharmacology landscape of clinical PARP inhibitors” (Scientific Reports, 2020).

Where two headings read alike, the source gives them in different places.

Common to all, as to experiment: biochemical
Common to all, as to parameters: DiscoveRx KINOMEscan active site-directed competition binding; percent of control kinase bound to immobilised ligand

Assay [1] concerns the target T1, STK36 (Homo sapiens, UniProt Q9NRP7).
T1 sequence (Q9NRP7 1-1315): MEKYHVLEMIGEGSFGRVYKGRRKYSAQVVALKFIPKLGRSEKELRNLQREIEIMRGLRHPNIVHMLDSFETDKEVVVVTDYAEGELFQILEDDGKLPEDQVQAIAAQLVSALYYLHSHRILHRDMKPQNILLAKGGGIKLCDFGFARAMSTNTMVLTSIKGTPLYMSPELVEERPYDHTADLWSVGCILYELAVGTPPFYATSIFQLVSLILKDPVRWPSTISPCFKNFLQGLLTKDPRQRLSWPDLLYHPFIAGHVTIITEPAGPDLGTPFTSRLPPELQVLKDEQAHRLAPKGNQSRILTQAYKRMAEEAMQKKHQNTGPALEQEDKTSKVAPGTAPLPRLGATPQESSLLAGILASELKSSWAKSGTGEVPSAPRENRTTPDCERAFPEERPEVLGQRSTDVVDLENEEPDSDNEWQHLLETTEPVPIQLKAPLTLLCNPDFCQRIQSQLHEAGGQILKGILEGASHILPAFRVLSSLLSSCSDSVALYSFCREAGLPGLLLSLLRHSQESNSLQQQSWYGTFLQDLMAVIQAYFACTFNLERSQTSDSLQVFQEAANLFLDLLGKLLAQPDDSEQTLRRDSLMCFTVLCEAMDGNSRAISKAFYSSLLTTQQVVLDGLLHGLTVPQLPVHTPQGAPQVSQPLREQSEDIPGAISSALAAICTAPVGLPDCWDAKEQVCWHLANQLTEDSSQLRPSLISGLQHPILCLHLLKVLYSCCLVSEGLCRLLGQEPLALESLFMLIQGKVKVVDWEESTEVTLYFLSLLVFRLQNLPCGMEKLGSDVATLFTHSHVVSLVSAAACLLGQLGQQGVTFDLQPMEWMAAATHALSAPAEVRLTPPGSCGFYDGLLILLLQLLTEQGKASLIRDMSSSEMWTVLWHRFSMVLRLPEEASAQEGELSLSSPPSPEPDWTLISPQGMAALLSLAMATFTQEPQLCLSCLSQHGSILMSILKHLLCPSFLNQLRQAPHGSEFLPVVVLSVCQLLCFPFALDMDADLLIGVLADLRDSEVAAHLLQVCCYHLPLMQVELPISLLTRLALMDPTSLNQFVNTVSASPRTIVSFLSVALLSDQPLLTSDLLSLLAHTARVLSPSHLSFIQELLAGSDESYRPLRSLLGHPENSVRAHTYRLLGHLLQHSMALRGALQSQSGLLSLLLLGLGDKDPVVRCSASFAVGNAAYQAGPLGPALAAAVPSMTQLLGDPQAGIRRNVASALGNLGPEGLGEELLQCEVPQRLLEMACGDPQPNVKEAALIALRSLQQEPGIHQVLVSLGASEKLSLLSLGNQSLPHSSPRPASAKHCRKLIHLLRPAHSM

Assay [2] concerns the target T2, MERTK (Homo sapiens, UniProt Q12866).
T2 sequence (Q12866 1-999): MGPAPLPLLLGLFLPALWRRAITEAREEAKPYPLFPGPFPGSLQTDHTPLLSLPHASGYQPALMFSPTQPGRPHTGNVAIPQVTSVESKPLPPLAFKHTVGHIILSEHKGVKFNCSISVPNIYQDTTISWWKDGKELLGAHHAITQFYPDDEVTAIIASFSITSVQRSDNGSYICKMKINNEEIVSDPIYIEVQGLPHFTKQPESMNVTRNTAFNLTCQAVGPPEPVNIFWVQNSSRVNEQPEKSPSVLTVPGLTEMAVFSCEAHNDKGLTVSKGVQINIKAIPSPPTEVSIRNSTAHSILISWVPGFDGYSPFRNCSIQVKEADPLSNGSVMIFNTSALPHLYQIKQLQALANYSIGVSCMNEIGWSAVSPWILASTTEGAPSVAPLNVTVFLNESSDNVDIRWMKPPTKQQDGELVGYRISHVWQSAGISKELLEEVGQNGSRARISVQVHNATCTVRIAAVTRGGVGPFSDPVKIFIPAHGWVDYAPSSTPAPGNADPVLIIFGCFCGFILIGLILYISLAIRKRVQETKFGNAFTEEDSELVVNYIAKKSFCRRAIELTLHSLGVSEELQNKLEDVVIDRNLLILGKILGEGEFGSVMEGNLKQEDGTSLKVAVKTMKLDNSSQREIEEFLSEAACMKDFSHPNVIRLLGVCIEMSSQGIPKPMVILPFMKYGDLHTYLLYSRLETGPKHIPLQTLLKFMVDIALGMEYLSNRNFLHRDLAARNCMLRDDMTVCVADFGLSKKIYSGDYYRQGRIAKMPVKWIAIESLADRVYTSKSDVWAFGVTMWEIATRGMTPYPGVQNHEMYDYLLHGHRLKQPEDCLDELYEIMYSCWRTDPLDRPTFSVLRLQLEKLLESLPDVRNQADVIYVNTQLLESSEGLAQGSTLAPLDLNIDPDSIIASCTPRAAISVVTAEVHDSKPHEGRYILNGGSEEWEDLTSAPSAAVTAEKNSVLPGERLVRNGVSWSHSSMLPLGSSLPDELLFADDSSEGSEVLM

The target of assay [3] is KIT(D816H) (Homo sapiens, UniProt P10721, D816H).
The mark [4] stands for this setting: read-out: Niraparib (MK-4827) / %Ctrl @ 10000nM.
Setting [5] is: read-out: Talazoparib (BMN 673) / %Ctrl @ 10000nM.
Where [6] appears, read: read-out: Rucaparib / %Ctrl @ 10000nM, binding competition, % of control.
[7] abbreviates: read-out: Olaparib / %Ctrl @ 10000nM.

Sequence of KIT(D816H) (P10721 whole entry D816H): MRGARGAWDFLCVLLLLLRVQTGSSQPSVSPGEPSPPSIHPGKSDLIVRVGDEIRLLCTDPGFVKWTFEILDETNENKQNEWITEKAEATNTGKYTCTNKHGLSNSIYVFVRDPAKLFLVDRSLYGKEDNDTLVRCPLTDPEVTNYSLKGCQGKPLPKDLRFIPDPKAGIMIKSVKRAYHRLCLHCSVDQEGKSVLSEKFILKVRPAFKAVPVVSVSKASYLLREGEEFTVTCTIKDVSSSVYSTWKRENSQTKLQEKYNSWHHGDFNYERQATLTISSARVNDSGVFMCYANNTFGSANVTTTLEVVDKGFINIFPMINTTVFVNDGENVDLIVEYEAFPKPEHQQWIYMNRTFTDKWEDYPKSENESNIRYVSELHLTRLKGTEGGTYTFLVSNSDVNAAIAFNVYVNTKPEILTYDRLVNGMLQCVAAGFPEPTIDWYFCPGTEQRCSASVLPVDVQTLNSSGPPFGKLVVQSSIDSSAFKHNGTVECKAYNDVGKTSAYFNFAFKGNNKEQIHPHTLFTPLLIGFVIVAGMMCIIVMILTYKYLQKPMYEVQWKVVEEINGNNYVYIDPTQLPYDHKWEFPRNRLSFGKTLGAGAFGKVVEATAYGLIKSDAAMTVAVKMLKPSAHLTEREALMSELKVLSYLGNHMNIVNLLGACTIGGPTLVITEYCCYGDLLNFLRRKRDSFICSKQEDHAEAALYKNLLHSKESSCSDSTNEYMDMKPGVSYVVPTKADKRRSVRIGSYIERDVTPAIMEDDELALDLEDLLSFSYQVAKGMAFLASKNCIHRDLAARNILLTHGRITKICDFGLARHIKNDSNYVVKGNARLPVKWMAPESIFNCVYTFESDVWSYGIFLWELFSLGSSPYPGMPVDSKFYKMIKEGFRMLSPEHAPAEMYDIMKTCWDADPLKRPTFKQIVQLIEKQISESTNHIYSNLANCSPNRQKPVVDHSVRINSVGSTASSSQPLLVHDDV

Consider `NC(=O)c1cccc2cn(-c3ccc([C@@H]4CCCNC4)cc3)nc12` [Niraparib], for which the values for the percent of control binding at 10 µM in assay [1] (setting [4]), in assay [2] (setting [4]) and in assay [3] (setting [4]) were 88%, 99% and 94%, respectively.

Take `Cn1ncnc1[C@H]1c2n[nH]c(=O)c3cc(F)cc(c23)N[C@@H]1c1ccc(F)cc1` [Talazoparib]: the percent of control binding at 10 µM was 56% in assay [1] (setting [5]), 98% in assay [2] (setting [5]) and 100% in assay [3] (setting [5]).

As for `CNCc1ccc(-c2[nH]c3cc(F)cc4c3c2CCNC4=O)cc1` [Rucaparib], the percent of control binding at 10 µM in assay [1] (setting [6]) stood at 69%; in assay [2] (setting [6]), 64%; in assay [3] (setting [6]) it was 82%.

`O=C(c1cc(Cc2n[nH]c(=O)c3ccccc23)ccc1F)N1CCN(C(=O)C2CC2)CC1` [Olaparib]: the percent of control binding at 10 µM came to 96% in assay [1] (setting [7]), 83% in assay [2] (setting [7]) and 96% in assay [3] (setting [7]).
